The values below come from patent US20090232866A1, “Oligopeptides as coating material for medical products” (priority 2003, published 2009).

*: point of attachment. CH2Cl = ClC*

The subject of this assay is coronary arteries of pigs. As to the kind of experiment: Balloon angioplasty and stent implantation in pig coronary arteries, IVUS assessment of neointimal proliferation after 4 weeks. To be noted: local administration via perfusion balloon, 4 weeks after balloon angioplasty and stent implantation, 7 pigs per group. Type of assay: in vivo, Domestic pigs.

Consider “Ac-Tyr-Val-Ala-Asp-chloromethylketone (Ac-YVAD-CH2Cl) [Ac-YVAD-CMK]”, for which, under “fraction of control value”, the “reduction of maximum plaque area in comparison with the negative control group” value was “approximately ⅓” and the “reduction of plaque volume in comparison with the negative control group” value is on record as “approximately ⅙”. Where the note is “percent of control value”, the “reduction of the stenotisized area in comparison with the negative control group” value is given as “approximately 40%”.
